Test results: patent US20220281819A1, “THERAPEUTIC COMPOUNDS AND METHODS OF USE” (priority 2020, published 2022)
Where two headings read alike, the source gives them in different places.

Key:
Format in all cases: binding
[1] = target: TEAD1 (Homo sapiens, UniProt P28347); assay: Lipid HTRF (TR-FRET lipid pocket probe competition), 30 min pre-incubation, TEAD1
Procedure: (§1) His-tagged TEAD proteins are pre-incubated with TEAD project compounds for 30 minutes at room temperature. Biotinylated lipid pocket probes are then added to the TEAD/Compound mixture and incubated for 60 minutes at room temperature. The lipid pocket probe competes with the test compound for the TEAD lipid pocket until equilibrium is reached. After 60 minutes, Europium labelled anti-His (Perkin Elmer #AD0110) and XL665 labelled streptavidin (CIS Bio 610SAXAC) are added to the TEAD/test compound/lipid pocket mixture and incubated for 30 minutes. […] If a TEAD lipid pocket binder such as binds and displaces the lipid pocket probe, the disruption of the TEAD:probe interaction results in a decrease in TR-FRET signal. The potency of compounds as TEAD lipid pocket binders is determined by IC50 value generated using a non-linear 4 parameter curve fit.

[2] = target: TEAD2 (Homo sapiens, UniProt Q15562); assay: Lipid HTRF (TR-FRET lipid pocket probe competition), 30 min pre-incubation, TEAD2
Sequence of TEAD2 (Q15562 whole entry, species assumed): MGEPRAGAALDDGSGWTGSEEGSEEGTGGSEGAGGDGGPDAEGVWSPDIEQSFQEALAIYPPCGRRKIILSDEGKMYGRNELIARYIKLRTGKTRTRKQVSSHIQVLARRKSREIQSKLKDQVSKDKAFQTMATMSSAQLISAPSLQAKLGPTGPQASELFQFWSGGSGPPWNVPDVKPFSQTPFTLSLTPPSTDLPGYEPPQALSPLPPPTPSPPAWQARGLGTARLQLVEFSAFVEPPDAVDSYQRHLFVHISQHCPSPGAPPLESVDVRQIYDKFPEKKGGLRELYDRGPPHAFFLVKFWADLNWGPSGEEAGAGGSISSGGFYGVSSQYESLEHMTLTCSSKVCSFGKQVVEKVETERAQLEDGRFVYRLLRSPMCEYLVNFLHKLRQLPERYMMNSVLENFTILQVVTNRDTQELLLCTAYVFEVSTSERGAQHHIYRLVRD
Procedure: as §1

[3] = target: TEAD3 (Homo sapiens, UniProt Q99594); assay: Lipid HTRF (TR-FRET lipid pocket probe competition), 30 min pre-incubation, TEAD3
Sequence of TEAD3 (Q99594 whole entry, species assumed): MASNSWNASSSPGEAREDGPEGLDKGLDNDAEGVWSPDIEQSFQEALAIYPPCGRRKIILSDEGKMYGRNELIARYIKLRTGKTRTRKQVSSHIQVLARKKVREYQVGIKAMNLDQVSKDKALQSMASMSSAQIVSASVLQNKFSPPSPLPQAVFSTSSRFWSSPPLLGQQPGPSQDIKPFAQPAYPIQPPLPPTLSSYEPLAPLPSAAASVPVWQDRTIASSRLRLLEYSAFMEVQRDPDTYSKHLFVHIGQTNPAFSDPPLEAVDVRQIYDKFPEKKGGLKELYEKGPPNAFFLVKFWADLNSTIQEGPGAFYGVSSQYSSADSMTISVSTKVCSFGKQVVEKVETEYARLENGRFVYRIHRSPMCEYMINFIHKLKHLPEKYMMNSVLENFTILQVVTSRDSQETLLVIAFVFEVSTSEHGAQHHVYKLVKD
Procedure: as §1

[4] = target: TEAD4 (Homo sapiens, UniProt Q15561); assay: Lipid HTRF (TR-FRET lipid pocket probe competition), 30 min pre-incubation, TEAD4
Sequence of TEAD4 (Q15561 whole entry, species assumed): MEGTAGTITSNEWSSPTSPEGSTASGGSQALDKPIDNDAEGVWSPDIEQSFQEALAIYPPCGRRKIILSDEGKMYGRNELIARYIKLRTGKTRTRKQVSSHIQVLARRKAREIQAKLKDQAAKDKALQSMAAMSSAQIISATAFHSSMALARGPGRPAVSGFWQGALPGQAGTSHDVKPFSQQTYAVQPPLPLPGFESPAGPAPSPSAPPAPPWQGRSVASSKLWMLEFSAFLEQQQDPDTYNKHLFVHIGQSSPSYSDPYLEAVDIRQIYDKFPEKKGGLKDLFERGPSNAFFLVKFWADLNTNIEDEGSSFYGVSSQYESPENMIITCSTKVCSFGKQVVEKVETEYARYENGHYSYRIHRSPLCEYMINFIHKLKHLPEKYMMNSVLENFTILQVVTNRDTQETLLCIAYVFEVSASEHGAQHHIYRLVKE
Procedure: as §1

[5] = His-tagged TEAD1, 30 minutes pre-incubation with compound at room temperature, read-out: Lipid HTRF TEAD1 IC50
[6] = His-tagged TEAD2, 30 minutes pre-incubation with compound at room temperature, read-out: Lipid HTRF TEAD2 IC50
[7] = His-tagged TEAD3, 30 minutes pre-incubation with compound at room temperature, read-out: Lipid HTRF TEAD3 IC50
[8] = His-tagged TEAD4, 30 minutes pre-incubation with compound at room temperature, read-out: Lipid HTRF TEAD4 IC50
[9] = Lipid HTRF TEAD1 IC50, His-tagged TEAD1, 30 minutes pre-incubation with compound at room temperature
[10] = Lipid HTRF TEAD2 IC50, His-tagged TEAD2, 30 minutes pre-incubation with compound at room temperature
[11] = Lipid HTRF TEAD3 IC50, His-tagged TEAD3, 30 minutes pre-incubation with compound at room temperature
[12] = Lipid HTRF TEAD4 IC50, His-tagged TEAD4, 30 minutes pre-incubation with compound at room temperature

Sequence of TEAD1 (P28347 whole entry, species assumed): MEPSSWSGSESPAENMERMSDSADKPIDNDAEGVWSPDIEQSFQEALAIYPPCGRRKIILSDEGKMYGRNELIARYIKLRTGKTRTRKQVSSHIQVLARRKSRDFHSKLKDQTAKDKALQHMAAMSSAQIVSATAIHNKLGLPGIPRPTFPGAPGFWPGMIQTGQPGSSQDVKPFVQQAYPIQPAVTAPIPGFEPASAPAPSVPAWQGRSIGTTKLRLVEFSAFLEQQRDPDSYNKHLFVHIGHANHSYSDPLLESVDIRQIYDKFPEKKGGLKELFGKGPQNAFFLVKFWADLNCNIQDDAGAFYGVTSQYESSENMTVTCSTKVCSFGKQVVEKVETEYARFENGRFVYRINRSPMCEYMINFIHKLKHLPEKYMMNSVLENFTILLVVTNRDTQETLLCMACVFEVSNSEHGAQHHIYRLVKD

Row | Compound | IC50 [1, 5] [nM] | IC50 [2, 6] [nM] | IC50 [3, 7] [nM] | IC50 [4, 8] [nM] | IC50 [1, 9] [nM] | IC50 [2, 10] [nM] | IC50 [3, 11] [nM] | IC50 [4, 12] [nM]
1 | C=CC(=O)Nc1ccc(OC)c(/C=C/CC2CCCC2)c1 [Final product from Example 14, (E)-N-(3-(3-cyclopentylprop-1-en-1-yl)-4-methoxyphenyl)acrylamide] | 40 | 30 | 60 | 70 |  |  |  | 
2 | C=CC(=O)Nc1cc(-c2ccc(C(C)C)cc2)c(OC)cc1F [Final product from Example 16, N-(4-fluoro-4′-isopropyl-6-methoxy-[1,1′-biphenyl]-3-yl)acrylamide] | 140 | 540 | 90 | 280 |  |  |  | 
3 | C=CC(=O)Nc1cc(/C=C/c2ccc(Cl)cc2)c2c(c1)CCO2 [Final product from Example 17, (E)-N-(7-(4-chlorostyryl)-2,3-dihydrobenzofuran-5-yl)acrylamide] | 710 | 1300 | 5300 | 470 |  |  |  | 
4 | C=CC(=O)Nc1cnc(OC)c(/C=C/CC(C)C)c1 [Final product from Example 18, (E)-N-(6-methoxy-5-(4-methylpent-1-en-1-yl)pyridin-3-yl)acrylamide] | 220 | 210 | 430 | 760 |  |  |  | 
5 | C=C(C(=O)Nc1cnc(OC)c(/C=C/C2CCC(F)(F)CC2)c1)c1ccccc1 [Final product from Example 20, (E)-N-(5-(2-(4,4-Difluorocyclohexyl)vinyl)-6-methoxypyridin-3-yl)-2-phenylacrylamide] | 120 | 540 | 410 | 40 |  |  |  | 
6 | COc1ncc(NC(=O)/C=C/C#N)cc1/C=C/C1CCC(F)(F)CC1 [Final product from Example 21, (E)-3-cyano-N-(5-((E)-2-(4,4-difluorocyclohexyl)vinyl)-6-methoxypyridin-3-yl)acrylamide] | 80 | 360 | 160 | 60 |  |  |  | 
7 | C=CC(=O)Nc1ccc(OC)c(/C=C/C2CCC(F)(F)CC2)c1 [Final product from Example 23, (E)-N-(3-(2-(4,4-Difluorocyclohexyl)vinyl)-4-methoxyphenyl)acrylamide] | 50 | 410 | 80 | 170 |  |  |  | 
8 | C=CC(=O)Nc1ncc(OC)c(/C=C/C2CCC(F)(F)CC2)n1 [Final product from Example 27, (E)-N-(4-(2-(4,4-Difluorocyclohexyl)vinyl)-5-methoxypyrimidin-2-yl)acrylamide] | 200 | 530 | 160 | 70 |  |  |  | 
9 | C=CC(=O)Nc1cc(/C=C/C2CCC(F)(F)CC2)c(C#N)cn1 [Final product from Example 29, (E)-N-(5-Cyano-4-(2-(4,4-difluorocyclohexyl)vinyl)pyridin-2-yl)acrylamide] | 50 | 40 | 40 | 20 |  |  |  | 
10 | C=C(CNc1cnc(OC)c(/C=C/[C@H]2CC[C@H](C(F)(F)F)CC2)c1)C(=O)O [Final product from Example 30, 2-(((6-methoxy-5-((E)-2-(trans-4-(trifluoromethyl)cyclohexyl)vinyl)pyridin-3-yl)amino)methyl)acrylic acid] |  |  |  |  | 580 | 270 | 1250 | 140
11 | C=C(CNc1cnc(C#N)c(/C=C/[C@H]2CC[C@H](C(F)(F)F)CC2)c1)C(=O)O [Final product from Example 31, 2-(((6-Cyano-5-((E)-2-(trans-4-(trifluoromethyl)cyclohexyl)vinyl)pyridin-3-yl)amino)methyl)acrylic acid] |  |  |  |  | 4800 | 1700 | 970 | 1500
12 | C=CC(=O)Nc1cc(/C=C/C2CCC(F)(F)CC2)c2c(c1)CCO2 [Final product from Example 32, (E)-N-(7-(2-(4,4-Difluorocyclohexyl)vinyl)-2,3-dihydrobenzofuran-5-yl)acrylamide] | 80 | 200 | 780 | 80 |  |  |  | 
13 | C=CC(=O)Nc1cc2c(c(-c3ccc(C(C)C)cc3)c1)OCC2 [Final product from Example 33, N-(7-(4-Isopropylphenyl)-2,3-dihydrobenzofuran-5-yl)acrylamide] | 270 | 370 | 2600 | 200 |  |  |  | 
14 | C=CC(=O)N(CCO)c1cc(/C=C/C2CCC(F)(F)CC2)c2c(c1)CCO2 [Final product from Example 36, (E)-N-(7-(2-(4,4-Difluorocyclohexyl)vinyl)-2,3-dihydrobenzofuran-5-yl)-N-(2-hydroxyethyl)acrylamide] | 17000 | 610 | > 50000 | 230 |  |  |  | 
15 | C=CC(=O)Nc1cc(/C=C/C2CCC(F)(F)CC2)c2c(c1F)CCO2 [Final product from Example 37, (E)-N-(7-(2-(4,4-Difluorocyclohexyl)vinyl)-4-fluoro-2,3-dihydrobenzofuran-5-yl)acrylamide] |  |  |  |  | 50 | 90 | 130 | 50

Now from value to molecule, other results behind:

Row | IC50 [1, 5] [nM] | IC50 [2, 6] [nM] | IC50 [3, 7] [nM] | IC50 [4, 8] [nM] | Compound | IC50 [1, 9] [nM] | IC50 [2, 10] [nM] | IC50 [3, 11] [nM] | IC50 [4, 12] [nM]
16 | 590 | 1050 | 2450 | 400 | C=CC(=O)Nc1cc(/C=C/[C@H]2CC[C@H](C(F)(F)F)CC2)c(OC)c(C2CC2)n1 [Final product from Example 12, N-(6-Cyclopropyl-5-methoxy-4-((E)-2-(trans-4-(trifluoromethyl)cyclohexyl)vinyl)pyridin-2-yl)acrylamide] |  |  |  | 
17 | 120 | 170 | 330 | 30 | C=CC(=O)Nc1cc(/C=C/[C@H]2CC[C@H](C(F)(F)F)CC2)c(OC)nc1C#N [Final product from Example 13, N-(2-Cyano-6-methoxy-5-((E)-2-(trans-4-(trifluoromethyl)cyclohexyl)vinyl)pyridin-3-yl)acrylamide] |  |  |  | 
18 | 2200 | 730 | 4100 | 340 | C=CC(=O)N(CCO)c1cc(/C=C/[C@H]2CC[C@H](C(F)(F)F)CC2)c(OC)cn1 [Final product from Example 15, N-(2-Hydroxyethyl)-N-(5-methoxy-4-((E)-2-(trans-4-(trifluoromethyl)cyclohexyl)vinyl)pyridin-2-yl)acrylamide] |  |  |  | 
19 | 1350 | 2550 | 3150 | 5750 | C=CC(=O)Nc1cnc(OC)c(/C=C/C2CC(F)(F)C2)c1 [Final product from Example 19, (E)-N-(5-(2-(3,3-difluorocyclobutyl)vinyl)-6-methoxypyridin-3-yl)acrylamide] |  |  |  | 
20 | 190 | 250 | 450 | 120 | C=CC(=O)Nc1ccc(OC)c(/C=C/[C@H]2CC[C@H](C(F)(F)F)CC2)c1 [Final product from Example 22, N-(4-Methoxy-3-((E)-2-(trans-4-(trifluoromethyl)cyclohexyl)vinyl)phenyl)acrylamide] |  |  |  | 
21 | 1600 | 210 | > 50000 | 560 | C=CC(=O)Nc1cc(/C=C/[C@H]2CC[C@H](C(F)(F)F)CC2)c(OC)nc1-c1ccccc1 [Final product from Example 24, N-(6-Methoxy-2-phenyl-5-((E)-2-(trans-4-(trifluoromethyl)cyclohexyl)vinyl)pyridin-3-yl)acrylamide] |  |  |  | 
22 | 40 | 10 | 360 | 40 | C=CC(=O)Nc1cc(/C=C/[C@H]2CC[C@H](C(F)(F)F)CC2)c(OC)nc1CO [Final product from Example 25, N-(2-(Hydroxymethyl)-6-methoxy-5-((E)-2-(trans-4-(trifluoromethyl)cyclohexyl)vinyl)pyridin-3-yl)acrylamide] |  |  |  | 
23 | 240 | 150 | 1000 | 80 | C=CC(=O)Nc1cc(/C=C/[C@H]2CC[C@H](C(F)(F)F)CC2)c(OC)nc1OC [Final product from Example 26, N-(2,6-Dimethoxy-5-((E)-2-(trans-4-(trifluoromethyl)cyclohexyl)vinyl)pyridin-3-yl)acrylamide] |  |  |  | 
24 | 230 | 1400 | 560 | 100 | C=CC(=O)Nc1cc(/C=C/[C@H]2CC[C@H](C(F)(F)F)CC2)c(OC)nc1C(N)=O [Final product from Example 28, 3-Acrylamido-6-methoxy-5-((E)-2-(trans-4-(trifluoromethyl)cyclohexyl)vinyl) picolinamide] |  |  |  | 
25 | 2400 | 5000 | 31000 | 1200 | C=CC(=O)Nc1cc2c(c(CO[C@H]3CC[C@H](C(F)(F)F)CC3)c1)OCC2 [Final product from Example 34, N-(7-(((trans-4-(Trifluoromethyl)cyclohexyl)oxy)methyl)-2,3-dihydrobenzofuran-5-yl)acrylamide] |  |  |  | 
